27 molecules from patent US20230159453A1 (COCRYSTAL PHARMA, INC., priority 2020, published 2023) can be followed below.

The target in this assay is SARS2 protease (Severe acute respiratory syndrome coronavirus 2, UniProt P0DTD1). Put plainly: SARS-CoV-2 protease inhibition assay (SARS2 FRET protease assay). Type of assay: biochemical.
Where [1] appears, read: SARS-CoV-2 protease 25 nM, FRET, peptide substrate 1.3 μM, 30 minutes at 30° C., compounds 20 μM to 1.0 nM, read-out: IC50.

Values joined by “and” are separate entries in the source; they are usually repeats but may differ in a detail not shown here. Identical values can stand only once. Like-named read-outs stand apart in the source and are kept apart here.

What is called IC50 is the concentration that inhibits the measured activity by half. Regarding `CC1(C)CC(CC(NC(=O)[C@H](CC2CCCCC2)NC(=O)OC(c2cccc(F)c2)C(C)(C)c2cccc(Cl)c2)C(=O)C(=O)NC2CC2)C(=O)N1` (stereo partly drawn) [Compound C205, 2-(3-Chlorophenyl)-1-(3-fluorophenyl)-2-methylpropyl ((2S)-3-cyclohexyl-1-((4-(cyclopropylamino)-1-(5,5-dimethyl-2-oxopyrrolidin-3-yl)-3,4-dioxobutan-2-yl)amino)-1-oxopropan-2-yl)carbamate], under setting [1], the IC50 came to 2.56 µM.

Regarding `CS(=O)(=O)N1CCC(OC(=O)N[C@@H](CC2CCCCC2)C(=O)N[C@H](C=O)CCC(=O)N2CCOc3ccccc3C2)CC1` [Compound C30, 1-(Methylsulfonyl) piperidin-4-yl((S)-3-cyclohexyl-1-(((S)-5-(2,3-dihydrobenzo[f][1,4]oxazepin-4(5H)-yl)-1,5-dioxopentan-2-yl)amino)-1-oxopropan-2-yl)carbamate], under setting [1], the IC50 came to 42.3 µM.

`CS(=O)(=O)N1CCC2(CC1)CC(C[C@@H](C=O)NC(=O)[C@H](CC1CCCCC1)NC(=O)OCc1cccc(Cl)c1)C(=O)N2` (stereo partly drawn) [Compound C178, 3-Chlorobenzyl ((2S)-3-cyclohexyl-1-(((2S)-1-(8-(methylsulfonyl)-2-oxo-1,8-diazaspiro[4.5]decan-3-yl)-3-oxopropan-2-yl)amino)-1-oxopropan-2-yl)carbamate]: the 50% inhibitory concentration (IC50) under setting [1] was found to be 0.071 µM.

For the molecule `CC(C)C[C@H](NC(=O)N(Cc1ccccc1)C1CCN(C(=O)OC(C)(C)C)CC1)C(=O)N[C@@H](C[C@@H]1CCNC1=O)C(O)S(=O)(=O)O` (stereo partly drawn) [Compound C40, (2S)-2-((S)-2-(3-benzyl-3-(1-(tert-butoxycarbonyl)piperidin-4-yl)ureido)-4-methylpentanamido)-1-hydroxy-3-((S)-2-oxopyrrolidin-3-yl)propane-1-sulfonate], under setting [1], the IC50 was 0.173 µM and 0.221 µM.

Take `O=C(N[C@@H](CC1CCCCC1)C(=O)NC(CC1CC2(CCCCC2)NC1=O)C(=O)C(=O)NC1CC1)OC(Cc1cccc(Cl)c1)c1ccccc1` (stereo partly drawn) [Compound C153, 2-(3-Chlorophenyl)-1-phenylethyl ((2S)-3-cyclohexyl-1-((4-(cyclopropylamino)-3,4-dioxo-1-(2-oxo-1-azaspiro[4.5]decan-3-yl)butan-2-yl)amino)-1-oxopropan-2-yl)carbamate]: under setting [1], the IC50 is above 20 µM.

On to `O=C(N[C@@H](CC1CCCCC1)C(=O)N[C@@H](C[C@@H]1CCNC1=O)C(=O)C(=O)NC1CC1)OC(Cc1cccc(Cl)c1)c1cccc(Cl)c1` (stereo partly drawn) [Compound C241, 1,2-Bis(3-chlorophenyl)ethyl ((S)-3-cyclohexyl-1-(((S)-4-(cyclopropylamino)-3,4-dioxo-1-((S)-2-oxopyrrolidin-3-yl)butan-2-yl)amino)-1-oxopropan-2-yl)carbamate], for which the IC50 under setting [1] came out at 2.35 µM.

For the molecule `CC(C)C[C@H](NC(=O)OC(c1ccccc1)C1(c2cccc(Cl)c2)CCC1)C(=O)N[C@H](C=O)C[C@@H]1CCNC1=O` (stereo partly drawn) [Compound C277], the IC50 under setting [1] stood at 0.71 µM.

As to `CC(C)(c1cccc(Cl)c1)C(OC(=O)N[C@@H](CC1CCCCC1)C(=O)N[C@H](C=O)C[C@@H]1CCNC1=O)c1cccc(Cl)c1` (stereo partly drawn) [Compound C106, 1,2-Bis(3-chlorophenyl)-2-methylpropyl ((S)-3-cyclohexyl-1-oxo-1-(((S)-1-oxo-3-((S)-2-oxopyrrolidin-3-yl)propan-2-yl)amino)propan-2-yl)carbamate], under setting [1], the IC50 came out at 0.0001 µM.

With `CC(C)CN1C(=O)N[C@@H](C[C@@H]2CCNC2=O)C(O)N1C(=O)OCc1ccccc1` (stereo partly drawn) [Compound C129, Benzyl (5S)-6-hydroxy-2-isobutyl-3-oxo-5-(((S)-2-oxopyrrolidin-3-yl)methyl)-1,2,4-triazinane-1-carboxylate], the IC50 under setting [1] was above 20 µM.

Turning to `CC(C)C[C@H](NC(=O)OC(Cc1cccc(Cl)c1)c1ccccc1)C(=O)N[C@@H](C[C@@H]1CCNC1=O)C(=O)NS(=O)(=O)C1CC1` (stereo partly drawn) [Compound C249], the IC50 under setting [1] is above 20 µM.

Consider `CC1(C)CC(CC(NC(=O)[C@H](CC2CCCCC2)NC(=O)OC(Cc2cccc(Cl)c2)c2ccccc2)C(=O)C(N)=O)C(=O)N1` (stereo partly drawn) [Compound C217, 2-(3-Chlorophenyl)-1-phenylethyl ((2S)-1-((4-amino-1-(5,5-dimethyl-2-oxopyrrolidin-3-yl)-3,4-dioxobutan-2-yl)amino)-3-cyclohexyl-1-oxopropan-2-yl) carbamate], for which the IC50 under setting [1] came out at 3.99 µM.

Consider `CC(C)C[C@H](NC(=O)O[C@H](c1ccccc1)C(C)(C)c1cccc(Cl)c1)C(=O)N[C@H](C=O)C[C@@H]1CCNC1=O` [Compound C276], for which the IC50 under setting [1] came to 0.06 µM.

For the molecule `CC1(C)CC(CC(NC(=O)[C@H](CC2CCCCC2)NC(=O)c2cc3ccccc3[nH]2)C(=O)C(N)=O)C(=O)N1` (stereo partly drawn) [Compound C123, N-((2S)-1-((4-amino-1-(5,5-dimethyl-2-oxopyrrolidin-3-yl)-3,4-dioxobutan-2-yl)amino)-3-cyclohexyl-1-oxopropan-2-yl)-1H-indole-2-carboxamide], the IC50 under setting [1] was found to be 0.294 µM.

As to `CC(=O)N1CCC2(CC1)CC(CC(C=O)NC(=O)[C@H](CC1CCCCC1)NC(=O)c1cc3ccccc3[nH]1)C(=O)N2` (stereo partly drawn) [Compound C75, N-((2S)-1-((1-(8-acetyl-2-oxo-1,8-diazaspiro[4.5]decan-3-yl)-3-oxopropan-2-yl)amino)-3-cyclohexyl-1-oxopropan-2-yl)-1H-indole-2-carboxamide], the IC50 under setting [1] amounted to 0.0012 µM.

For the molecule `CC(C)C[C@H](NC(=O)OC(C)(C)Cc1ccccc1)C(=O)N[C@@H](C[C@@H]1CCNC1=O)C(=O)C(N)=O` [Compound C79], the IC50 under setting [1] was determined as 3.8 µM.

With `CC(C)(C)C(=O)N1CCC2(CC1)CC(CC(C=O)NC(=O)[C@H](CC1CCCCC1)NC(=O)OCc1cccc(Cl)c1)C(=O)N2` (stereo partly drawn) [Compound C212, 3-Chlorobenzyl ((2S)-3-cyclohexyl-1-oxo-1-((1-oxo-3-(2-oxo-8-pivaloyl-1,8-diazaspiro[4.5]decan-3-yl)propan-2-yl)amino)propan-2-yl)carbamate], the IC50 under setting [1] stood at 0.194 µM.

`CC(C)C[C@H](NC(=O)OC(Cc1cccc(Cl)c1)c1ccccc1)C(=O)N[C@@H](C[C@@H]1CCNC1=O)C(=O)C(=O)N1CCCCC1` (stereo partly drawn) [Compound C243, 2-(3-Chlorophenyl)-1-phenylethyl ((S)-1-(((S)-3,4-dioxo-1-((S)-2-oxopyrrolidin-3-yl)-4-(piperidin-1-yl)butan-2-yl)amino)-4-methyl-1-oxopentan-2-yl) carbamate]: under setting [1], the 50% inhibitory concentration (IC50) was above 20 µM.

Regarding `CC(C)C[C@H](NC(=O)OC(c1ccccc1)C(C)(C)c1cccc(Cl)c1)C(=O)N[C@@H](C[C@@H]1CCNC1=O)C(=O)C(=O)N1CCCCC1` (stereo partly drawn) [Compound C270], the IC50 under setting [1] is 4.41 µM.

Turning to `NC(=O)C(=O)[C@H](C[C@@H]1CCNC1=O)NC(=O)[C@H](CC1CCCCC1)NC(=O)OC(Cc1cccc(Cl)c1)c1ccccc1` (stereo partly drawn) [Compound C116, 2-(3-Chlorophenyl)-1-phenylethyl ((S)-1-(((S)-4-amino-3,4-dioxo-1-((S)-2-oxopyrrolidin-3-yl)butan-2-yl)amino)-3-cyclohexyl-1-oxopropan-2-yl)carbamate], the half-maximal inhibitory concentration (IC50) under setting [1] was determined as 4.84 µM.

With `CC(C)C[C@H](NC(=O)OC1(Cc2ccccc2)CCC1)C(=O)N[C@H](C=O)C[C@@H]1CCNC1=O` [Compound C56, 1-benzylcyclobutyl ((S)-4-methyl-1-oxo-1-(((S)-1-oxo-3-((S)-2-oxopyrrolidin-3-yl)propan-2-yl)amino)pentan-2-yl)carbamate], the IC50 under setting [1] was 0.6 µM.

Turning to `CC(C)C[C@H](NC(=O)OC(Cc1cccc(Cl)c1)c1cccc(Cl)c1)C(=O)N[C@@H](C[C@@H]1CCNC1=O)C(=O)C(=O)NC1CC1` (stereo partly drawn) [Compound C242, 1,2-Bis(3-chlorophenyl)ethyl ((S)-1-(((S)-4-(cyclopropylamino)-3,4-dioxo-1-((S)-2-oxopyrrolidin-3-yl)butan-2-yl)amino)-4-methyl-1-oxopentan-2-yl)carbamate], the IC50 under setting [1] is 0.074 µM.

On to `O=C(N[C@@H](CC1CCCCC1)C(=O)N[C@@H](CC1CC2(CCCCC2)NC1=O)C(=O)CO)OCc1cccc(Cl)c1` (stereo partly drawn) [Compound C168, 3-Chlorobenzyl ((2S)-3-cyclohexyl-1-(((2S)-4-hydroxy-3-oxo-1-(2-oxo-1-azaspiro[4.5]decan-3-yl)butan-2-yl)amino)-1-oxopropan-2-yl)carbamate], for which the IC50 under setting [1] was 5.44 µM.

Regarding `CC(=O)N1CCC2(CC1)CC(CC(C=O)NC(=O)[C@H](CC1CCCCC1)NC(=O)c1cc3cc(Cl)ccc3[nH]1)C(=O)N2` (stereo partly drawn) [Compound C141, N-((2S)-1-((1-(8-acetyl-2-oxo-1,8-diazaspiro[4.5]decan-3-yl)-3-oxopropan-2-yl)amino)-3-cyclohexyl-1-oxopropan-2-yl)-5-chloro-1H-indole-2-carboxamide], under setting [1], the IC50 was 0.0308 µM.

`CC(C)C[C@H](NC(=O)OC1CCCC1Cc1ccccc1)C(=O)N[C@@H](C[C@@H]1CCNC1=O)C(=O)CCl` (stereo partly drawn) [Compound C199, 2-Benzylcyclopentyl ((S)-1-(((S)-4-chloro-3-oxo-1-((S)-2-oxopyrrolidin-3-yl)butan-2-yl)amino)-4-methyl-1-oxopentan-2-yl)carbamate] showed an IC50 (IC50 (μM)) of 0.196 µM.

In the case of `O=C(N[C@@H](CC1CCCCC1)C(=O)N[C@@H](C[C@@H]1CCNC1=O)C(=O)C(=O)NC1CC1)OC1CCCC1Cc1cccc(Cl)c1` (stereo partly drawn) [Compound C151, 2-(3-Chlorobenzyl)cyclopentyl ((S)-3-cyclohexyl-1-(((S)-4-(cyclopropylamino)-3,4-dioxo-1-((S)-2-oxopyrrolidin-3-yl)butan-2-yl)amino)-1-oxopropan-2-yl)carbamate], the IC50 under setting [1] was found to be 3.67 µM.

As to `CC(C)C(C)(C)C(NC(=O)OCc1ccccc1)C(=O)N[C@H](C=O)C[C@@H]1CCNC1=O` (stereo partly drawn) [Compound C118, Benzyl (3,3,4-trimethyl-1-oxo-1-(((S)-1-oxo-3-((S)-2-oxopyrrolidin-3-yl)propan-2-yl)amino)pentan-2-yl)carbamate], the IC50 under setting [1] turned out to be 0.868 µM.

As for `CC(C)C[C@H](NC(=O)OCC1CCC(F)(F)CC1)C(=O)NC(C)(C=O)CC1CCNC1=O` (stereo partly drawn) [Compound C107, (4,4-Difluorocyclohexyl) methyl ((2S)-4-methyl-1-((2-methyl-1-oxo-3-(2-oxopyrrolidin-3-yl)propan-2-yl)amino)-1-oxopentan-2-yl) carbamate], under setting [1], the IC50 came to 6.79 µM.
